In patent US20230172894A1, “COMBINATION TREATMENT FOR FUMARATE-RELATED DISEASES” (IMCYSE SA, priority 2020, published 2023):
Read-outs that look alike come from different tables or passages of the source. No end group written: not given here.

Columns and labels:
[1] = system: experimental auto-immune encephalomyelitis (EAE) development in mice; details: Example 2, 16 mice per group
Description: (§1) Example 2: Effect of the therapeutic administration of an immunogenic peptide comprising a MOG35-55 MHCII T cell epitope linked or not to an HCPYC oxidoreductase motif in combination with dimethyl fumarate (BG-12, […]™) on experimental auto-immune encephalomyelitis (EAE) development in mice.
The study used a total of 96 female C57BL/6 mice (Taconic Biosciences, 10 weeks old on Day 0). Mice were acclimated for 14 days prior to the first injection. Mice were assigned to groups in a balanced manner to achieve similar average weight across the groups at the start of the study.
(§2) Treatment 1 was administered once on each of the days indicated in Table 3, s.c., at a volume of 0.05 mL/site, each mouse receiving injection at two sites, for a total of 0.1 mL/mouse/dosing day. IMCY-0189 or MOG35-55 peptide total dose was 30 μg per administration.
(§3) BG-12 was dosed at 100 mg/kg.
(§4) All dosing were done at the same time (+/−1 hour) each dosing day. For the BID groups there were no less than 10 and no more than 14 hours between doses.
Lyophilized mouse MOG35-55 peptide with the sequence […] (SEQ ID NO:205), comprising the mouse Myelin Oligodendrocyte Glycoprotein (MOG35-55) MHCII T cell epitope […] (SEQ ID NO:169), was solubilized immediately before use. Lyophilized MOG35-55 peptide was thawed at room temperature for 10 minutes, resuspended in Na Acetate buffer 50 mM NaCl 0.9% pH 5.4 and incubated at room temperature for 10 minutes. Reconstituted MOG35-55 peptide was then mixed with Imject™ Alum Adjuvant before injection. Note that the positions 35 to 55 refer to the mature protein, i.e. after cleavage of the signal peptide (AA 1-29), defined by SEQ ID NO: 208. In the full-length amino acid sequence of MOG (SEQ ID NO: 184), said peptide would be at positions 64-84.
Lyophilized IMCY-0189 was thawed at room temperature for 10 minutes, resuspended in Na Acetate buffer 50 mM NaCl 0.9% pH 5.4 and incubated at room temperature for 10 minutes. Reconstituted peptide was then mixed with Imject™ Alum Adjuvant before injection.
For Treatment 2, vehicle was 0.5% HPMC, 0.2% Tween 20, and 50 mM citrate buffer at pH 4. BG-12 (Santa Cruz Biotechnology, sc-239774) and was prepared at least every 2 weeks. At each preparation the required amount of BG-12 was weighed out into a mortar and triturated with a pestle. Vehicle was then added in small increments and mixed until the final volume was reached. The material was then vortexed and sonicated in a water bath until a homogeneous suspension was obtained. Formulated BG-12 was stored at 4° C., stirring continuously.
EAE induction, scoring and statistical analysis were performed as described in example 1.
(§5) EAE development was evaluated by comparing clinical EAE readouts for all groups to the negative control (Saline/Vehicle) group.

[2] = system: experimental auto-immune encephalomyelitis (EAE) development in mice; details: Example 3; for mice died in group: 16 mice per group; for disease onset: peptide 30 μg/Alum s.c. days 4, 9, 14, 19, BG-12 100 mg/kg p.o. BID days 0 to 27; for disease onset / AUC (area under the curve) of EAE scores / MMS (mean maximal score) / end score (clinical EAE score 0-5): vs negative control
Description: as §1, with “3:” for “2:”, “linked to a KCRC (SEQ ID NO: 65)” for “linked”, “KCRPYC (SEQ ID NO: 84)” for “not to an HCPYC”
The study used a total of 128 female C57BL/6 mice (Taconic Biosciences, 9 weeks old on Day 0). Mice were acclimated for 7 days prior to the first injection. Mice were assigned to groups in a balanced manner to achieve similar average weight across the groups at the start of the study.
as §2, with “4,” for “3,”, “IMCY-0189 (CXXC oxidoreductase motif, IMCY-0453 (CXC oxidoreductase motif)” for “IMCY-0189”, “IMCY-0455 (CXXXC oxidoreductase motif)” for “MOG35-55”
as §3, §4
(§6) (SEQ ID NO: 266), comprising an oxidoreductase motif KCRC (SEQ ID NO: 65), a linker GW, a murine Myelin Oligodendrocyte Glycoprotein (MOG35-55) MHCII T cell epitope […] (SEQ ID NO: 169) and a flanking sequence HLYR (SEQ ID NO: 186) (Smart Bioscience) was solubilized immediately before use. Lyophilized IMCY-0453 was thawed at room temperature for 10 minutes, resuspended in Na Acetate buffer 50 mM NaCl 0.9% pH 5.4 and incubated at room temperature for 10 minutes. Reconstituted peptide was then mixed with Imject™ Alum Adjuvant before injection.
as §6, with “268),” for “266),”, “KCRPYC” for “KCRC”, “84),” for “65),”, “IMCY-0455” for “IMCY-0453”
(§7) Treatment 2 was prepared as described in example 2.
EAE induction, scoring and statistical analysis were performed as described in example
as §5

[3] = system: experimental auto-immune encephalomyelitis (EAE) development in mice; assay: Example 3: serum neurofilament light (NF-L) levels in EAE mice; format: in vivo, female C57BL/6 mice; details: Day 28 serum, vs negative control
Protocol: On Day 28, blood was collected from all mice into gel clot activator tubes and allowed to clot at room temperature for ˜30 minutes. Blood is then centrifuged at ˜10000 g for 5 minutes. Serum was transferred into Eppendorf tubes and stored at −80° C. until shipment to Quanterix™. Serum Neurofilament light (NF-L) protein levels were quantified using Simoa® NF-light Advantage kit as described in example 1.

[4] = system: experimental auto-immune encephalomyelitis (EAE) development in mice; details: Example 4; 16 mice per group
Description: Example 4: Effect of the therapeutic administration of an immunogenic peptide comprising a human MOG201-212 MHCII T cell epitope linked to a KHCPYC oxidoreductase motif in combination with dimethyl fumarate (BG-12, […]™) on experimental auto-immune encephalomyelitis (EAE) development in mice.
The study used a total of 96 female C57BL/6 mice (Taconic Biosciences, 9 weeks old on Day 0). Mice were acclimated for 7 days prior to the first injection. Mice were assigned to groups in a balanced manner to achieve similar average weight across the groups at the start of the study.
Treatment 1 was administered once on each of the days indicated in Table 5, s.c., at a volume of 0.05 mL/site, each mouse receiving injection at two sites, for a total of 0.1 mL/mouse/dosing day. IMCY-0189 or P4 peptide total dose was 30 μg per administration.
as §3, §4
Lyophilized immunogenic peptide P4 with the sequence […] (SEQ ID NO: 176), comprising an oxidoreductase motif KHCPYC (SEQ ID NO: 77), a linker VRY, a human Myelin Oligodendrocyte Glycoprotein (MOG201-212) MHCII T cell epitope […] (SEQ ID NO: 165) and a flanking sequence TLFKK (SEQ ID NO: 267) (Smart Bioscience) was solubilized immediately before use. Lyophilized P4 was thawed at room temperature for 10 minutes, resuspended in Na Acetate buffer 50 mM NaCl 0.9% pH 5.4 and incubated at room temperature for 10 minutes. Reconstituted peptide was then mixed with Imject™ Alum Adjuvant before injection.
as §7
EAE induction, scoring and statistical analysis were performed as described in example 2.
as §5

Row | Compound | mice died in group [1] | mice died in group ([1]; listed as MOG35-55/Vehicle) [mice] | mice died in group [2] [mice] | disease onset [2] | AUC (area under the curve) of EAE scores [2] | MMS (mean maximal score) [2] | end score (clinical EAE score 0-5) [2] | serum NF-L levels [3] | mice died in group [4]
1 | MEVGWYRSPFSRVVHLYRNGK [MOG35-55 peptide] | No mice died | 2 |  |  |  |  |  |  | 
2 | KCRCGWYRSPFSRVVHLYR [IMCY-0453] |  |  | 1 | statistically significantly improved | statistically significantly improved | statistically significantly improved | statistically significantly improved | statistically significant reduced NF-L levels | 
3 | CC[C@H](C)[C@H](NC(=O)[C@H](CCCCN)NC(=O)[C@H](Cc1c[nH]c2ccccc12)NC(=O)[C@H](CO)NC(=O)[C@@H]1CCCN1C(=O)[C@@H](NC(=O)[C@H](CCCNC(=N)N)NC(=O)[C@H](CC(C)C)NC(=O)[C@H](Cc1ccccc1)NC(=O)[C@H](Cc1ccc(O)cc1)NC(=O)[C@H](CCCNC(=N)N)NC(=O)[C@@H](NC(=O)[C@H](CS)NC(=O)[C@H](Cc1ccc(O)cc1)NC(=O)[C@@H]1CCCN1C(=O)[C@H](CS)NC(=O)[C@H](Cc1c[nH]cn1)NC(=O)[C@@H](N)CCCCN)C(C)C)C(C)C)C(=O)N[C@H](C(=O)N[C@@H](CC(C)C)C(=O)N[C@@H](Cc1ccccc1)C(=O)N[C@@H](CCCCN)C(=O)N[C@@H](CCCCN)C(=O)O)[C@@H](C)O [P4] |  |  |  |  |  |  |  |  | No mice died
4 | KCRPYCGWYRSPFSRVVHLYR [IMCY-0455] |  |  | 1 | statistically significantly improved | statistically significantly improved | statistically significantly improved | statistically significantly improved | statistically significant reduced NF-L levels | 
